Assay [1] addresses T1, Neuropeptide Y receptor type 5 (Homo sapiens, UniProt Q15761).
T1 sequence (Q15761 whole entry): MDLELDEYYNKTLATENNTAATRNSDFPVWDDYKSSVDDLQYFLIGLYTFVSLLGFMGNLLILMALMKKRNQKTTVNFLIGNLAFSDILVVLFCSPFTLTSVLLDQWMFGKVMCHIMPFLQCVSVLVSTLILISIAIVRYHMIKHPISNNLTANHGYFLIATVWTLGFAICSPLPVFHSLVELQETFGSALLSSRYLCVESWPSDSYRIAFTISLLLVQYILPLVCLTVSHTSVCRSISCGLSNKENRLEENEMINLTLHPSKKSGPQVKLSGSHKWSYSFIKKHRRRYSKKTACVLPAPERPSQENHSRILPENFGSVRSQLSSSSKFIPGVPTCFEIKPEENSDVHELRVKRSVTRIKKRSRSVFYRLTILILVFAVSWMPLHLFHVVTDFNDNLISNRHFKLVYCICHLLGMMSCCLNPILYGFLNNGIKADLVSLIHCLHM
In words: (§1) Concentration that inhibited 50% of total specific binding of [125I]PYY ligand to human NPY-Y5 receptor.

Assay [2] concerns the target T2, Neuropeptide Y receptor type 1 (Homo sapiens, UniProt P25929).
T2 sequence (P25929 whole entry): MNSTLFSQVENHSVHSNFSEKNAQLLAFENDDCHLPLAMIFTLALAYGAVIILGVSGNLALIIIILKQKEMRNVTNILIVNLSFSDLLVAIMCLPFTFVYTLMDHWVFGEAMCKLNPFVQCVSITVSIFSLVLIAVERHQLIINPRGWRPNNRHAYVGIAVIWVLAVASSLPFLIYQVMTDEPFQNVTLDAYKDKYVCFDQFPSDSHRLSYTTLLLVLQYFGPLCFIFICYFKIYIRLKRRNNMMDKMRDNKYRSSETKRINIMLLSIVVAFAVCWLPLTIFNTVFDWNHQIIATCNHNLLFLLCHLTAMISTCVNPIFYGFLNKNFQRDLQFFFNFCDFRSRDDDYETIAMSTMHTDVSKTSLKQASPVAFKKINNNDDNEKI
Put plainly: Concentration that inhibited 50% of total specific binding of [125I]PYY ligand to human NPY-Y1 receptor.

Assay [3] concerns the target T3, Neuropeptide Y receptor type 5 (Homo sapiens) (UniProt Q15761).
T3 sequence (whole entry): T1 sequence (Q15761 whole entry)
Described as §1.

pIC50: −log10 of the molar value.

Take `COc1cccc2c1CCCC(NCCN1CCC(CNS(=O)(=O)c3cccc4ccccc34)CC1)C2` (stereo not drawn): in assay [1], the pIC50 was less than 6.00.

For `Nc1ccc2c(c1)CC(NCC1CCN(CCNS(=O)(=O)c3cccc4ccccc34)CC1)CCC2` (stereo not drawn), in assay [1], the negative-log IC50 (pIC50) was 7.28.

In assay [1], `COc1ccc2c(c1OC)CC(NCC1CN(CCNS(=O)(=O)c3cccc4ccccc34)C1)CCC2` (stereo not drawn) had a negative-log IC50 (pIC50) of 6.85.

On to `Cc1ccc2c(c1)CC(NCC1CCN(CCNS(=O)(=O)c3cccc4ccccc34)CC1)CCC2` (stereo not drawn), for which the pIC50 is 4.74 in assay [2] and 7.14 in assay [1].

`O=S(=O)(NCCN1CCC(CNC2CCCc3ccc(Cl)cc3C2)CC1)c1cccc2ccccc12` (stereo not drawn): the negative-log IC50 (pIC50) was 5.07 in assay [2] and 7.07 in assay [1].

In turn, `COc1ccc2c(c1)CCCC(NCCN1CCC(CNS(=O)(=O)c3cccc4ccccc34)CC1)C2` (stereo not drawn) showed a pIC50 in assay [1] of 6.00.

In the case of `COc1cc2c(cc1OC)CC(NCC1CCN(CCNS(=O)(=O)c3cccc4ccccc34)CC1)CCC2` (stereo not drawn), the negative logarithm of the IC50 (pIC50) was 4.77 in assay [2] and 7.17 in assay [1].

`O=[N+]([O-])c1ccc2c(c1)CC(NCC1CCN(CCNS(=O)(=O)c3cccc4ccccc34)CC1)CCC2` (stereo not drawn): the negative logarithm of the IC50 (pIC50) in assay [2] was 4.82; in assay [1] it was 7.10.

Consider `COc1ccc2c(c1)CC(CNCC1CN(CCNS(=O)(=O)c3cccc4ccccc34)C1)CCC2` (stereo not drawn), for which the values for the pIC50 in assay [2] and in assay [1] were 4.66 and 7.07, respectively.

In assay [1], `O=S(=O)(NCCN1CC(CNC2CCCc3ccc(Cl)cc3C2)C1)c1cccc2ccccc12` (stereo not drawn) showed a pIC50 of 6.51.

Regarding `COc1ccc2c(c1)CC(NCCN1CCC(CNS(=O)(=O)c3cccc4ccccc34)CC1)CCC2` (stereo not drawn), the pIC50 was 4.72 in assay [2] and 6.13 in assay [1].

In assay [1], `O=S(=O)(NCCN1CCC(CNC2CCCc3ccccc3C2)CC1)c1cccc2ccccc12` (stereo not drawn) showed a pIC50 of 6.68.

For `CCOC(=O)COc1ccc2c(c1)CC(NCC1CCN(CCNS(=O)(=O)c3cccc4ccccc34)CC1)CCC2` (stereo not drawn), the negative logarithm of the IC50 (pIC50) in assay [1] was 6.17.

In the case of `COc1ccc2c(c1)CC(CNCCN1CCC(CNS(=O)(=O)c3cccc4ccccc34)CC1)CCC2` (stereo not drawn), the negative-log IC50 (pIC50) in assay [2] is 5.55; in assay [1], 6.27.

In assay [3], `O=C(O)COc1ccc2c(c1)CC(NCC1CCN(CCNS(=O)(=O)c3cccc4ccccc34)CC1)CCC2` (stereo not drawn) had an inhibition of 25.7%.

For `O=S(=O)(NC[C@H]1CC[C@@H](CNCC2CCc3ccccc3C2)CC1)c1cccc2ccccc12` (stereo partly drawn), the negative logarithm of the IC50 (pIC50) is 5.89 in assay [2] and 7.42 in assay [1].

Regarding `COc1ccc2c(c1)CC(CNC1CCN(CCNS(=O)(=O)c3cccc4ccccc34)CC1)CCC2` (stereo not drawn), the negative logarithm of the IC50 (pIC50) was 4.54 in assay [2] and 7.41 in assay [1].

In the case of `COc1ccc2c(c1)CC(NCC1CCN(CCNS(=O)(=O)c3cccc4ccccc34)CC1)CCC2` (stereo not drawn), the figures for the negative logarithm of the IC50 (pIC50) in assay [2] and in assay [1] were 4.85 and 7.35, respectively.

Regarding `COc1ccc2c(c1)CC(CNCC1CCN(CCNS(=O)(=O)c3cccc4ccccc34)CC1)CCC2` (stereo not drawn), the pIC50 in assay [2] is 5.02; in assay [1], 7.80.

For the molecule `COc1ccc2c(c1)CC(NC1CCN(CCNS(=O)(=O)c3cccc4ccccc34)CC1)CCC2` (stereo not drawn), the pIC50 in assay [2] is 4.46; in assay [1] it was 7.18.

`Cc1ccc2c(c1)CC(NCC1CN(CCNS(=O)(=O)c3cccc4ccccc34)C1)CCC2` (stereo not drawn) showed a negative logarithm of the IC50 (pIC50) in assay [1] of 6.72.

(Values after ChEMBL document CHEMBL1136061, “Novel potent antagonists of human neuropeptide Y Y5 receptors. Part 2: substituted benzo[a]cycloheptene derivatives” (Bioorg Med Chem Lett, 2002).)
